Measured values as given in the NIST ThermoML archive (doi:10.1021/je0495785).

What was measured:
[1] = for Normal melting temperature: Crystal, DTA; for Normal boiling temperature: Liquid, not specified, probably DSC
[2] = Molar enthalpy of transition or fusion; conditions: Crystal; DSC
[3] = molar enthalpy of vaporization or sublimation; conditions: Liquid, DSC
[4] = molar heat capacity at constant pressure; conditions: 101.33 kPa, Small sample (50 mg) DSC

Cc1ccc(N(c2ccc(C)cc2)c2ccc(C)cc2)cc1 [tri-tolylamine]
Conditions | Molar enthalpy of transition or fusion [kcal/mol] | Normal boiling temperature [°C] | Normal melting temperature [°C]
[1] | – | 300.89 | 115.59
[2] | 4.77 | – | –

Conditions | molar enthalpy [kcal/mol]
[3], 574.04 K | 17.3

Cc1ccc(N(c2ccc(C)cc2)c2cccc(C)c2)cc1 [3-methyl-N,N-bis(4-methylphenyl)benzenamine]
Conditions | Molar enthalpy of transition or fusion [kcal/mol] | Normal boiling temperature [°C] | Normal melting temperature [°C]
[1] | – | 315.94 | 56.70
[2] | 5.19 | – | –

[4]
Conditions | molar heat capacity at constant pressure [J/K/mol]
298 K, Crystal | 417.01
303 K, Crystal | 369.25
308 K, Crystal | 351.52
313 K, Crystal | 363.76
318 K, Crystal | 406.01
323 K, Crystal | 478.26
325 K, Crystal | 515.56
339 K, Liquid | 442.71
343 K, Liquid | 440.93
348 K, Liquid | 438.63
353 K, Liquid | 436.24
358 K, Liquid | 433.8
363 K, Liquid | 431.3
368 K, Liquid | 428.71
373 K, Liquid | 426.07
378 K, Liquid | 423.34
383 K, Liquid | 420.55
388 K, Liquid | 417.68
393 K, Liquid | 414.74

Conditions | molar enthalpy [kcal/mol]
[3], 589.09 K | 18.1

Cc1cccc(N(c2cccc(C)c2)c2cccc(C)c2)c1 [3-methyl-N,N-bis(3-methylphenyl)benzenamine]
Conditions | Molar enthalpy of transition or fusion [kcal/mol] | Normal boiling temperature [°C] | Normal melting temperature [°C]
[1] | – | 294.84 | 39.81
[2] | 3.12 | – | –

[4]
Conditions | molar heat capacity at constant pressure [J/K/mol]
240 K, Crystal | 1455.4
245 K, Crystal | 1383
250 K, Crystal | 1322.8
255 K, Crystal | 1274.6
260 K, Crystal | 1238.6
265 K, Crystal | 1214.8
270 K, Crystal | 1203
275 K, Crystal | 1203.4
280 K, Crystal | 1216
285 K, Crystal | 1240.6
290 K, Crystal | 1277.4
295 K, Crystal | 1326.3
300 K, Crystal | 1387.4
306 K, Crystal | 1476.7
336 K, Liquid | 1250.8
341 K, Liquid | 1249.7
346 K, Liquid | 1249.5
351 K, Liquid | 1250.1
356 K, Liquid | 1251.5
361 K, Liquid | 1253.8
366 K, Liquid | 1257
371 K, Liquid | 1261
376 K, Liquid | 1265.8
381 K, Liquid | 1271.5

Conditions | molar enthalpy [kcal/mol]
[3], 567.99 K | 8.98

Cc1ccc(N(c2cccc(C)c2)c2cccc(C)c2)cc1 [3-methyl-N-(3-methylphenyl)-N-(4-methylphenyl)benzenamine]
Conditions | Molar enthalpy of transition or fusion [kcal/mol] | Normal boiling temperature [°C] | Normal melting temperature [°C]
[1] | – | 274.1 | 89.50
[2] | 6.31 | – | –

molar heat capacity at constant pressure [J/K/mol], [4]
Conditions | 330 K | 335 K | 340 K | 365 K | 369 K | 372 K
Crystal | 114.18 | 117.34 | 98.12 | – | – | –
Liquid | – | – | – | 143.7 | 141.06 | 137.86

Conditions | molar enthalpy [kcal/mol]
[3], 547.3 K | 16.6
